row,melting point,Compound
1,122 to 123 °C,CC(=O)N1CC2OC(C3OCCO3)(C1)c1ccccc12 (stereo unspecified)
2,112 to 115 °C,CCCc1cccc(N2CC(=O)N(C)C(=O)N2)c1
3,95 to 98 °C,Cc1nc(Cl)cc(-c2ccc(F)cc2)n1
4,81.5 to 83.6 °C,CC(=O)N1CCC(C(=O)N(CCCN2CC3CN(C(=O)c4c(C)ccnc4C)CC3C2)c2ccc(C)c(Cl)c2)CC1 (stereo unspecified)
5,126 to 128 °C,COc1ccc2c(c1)c1c(n2CCC(=O)NN)CCN(C)C1
6,120 to 121 °C,OCC(CC(F)(F)F)Nc1nc(-c2ccc(Br)cc2)cs1 (stereo unspecified)
7,225 to 226 °C,CC(C)c1cccc(C(C)C)c1NC(=O)NC1CCCCC1c1ccccc1 (stereo unspecified)
8,96 to 97 °C,COc1ccc2c(c1)CCC(CNC(C)=O)C2 (stereo unspecified)
9,172 to 173 °C,N=C(N)NCCCOc1ccc2c(c1)N(Cc1ccccc1)C(=O)C(CC(=O)O)C2 (stereo unspecified)
10,152 to 153 °C,O=C1Nc2ccc(Cl)cc2C1CC1CCCCC1 (stereo unspecified)
11,80 °C,CCOc1ccc(C2=NC[C@@H](OC(=O)Nc3ccccc3)[C@H](c3ccccc3)O2)cc1 (racemic)
12,116 to 118 °C,CC[C@H](COC)n1cc(Br)nc(N2CCc3cc(OC)cc(C)c32)c1=O
13,182 to 183 °C,O=C(c1ccc2n1Cc1ccccc1N(S(=O)(=O)c1ccc(Br)cc1)C2)C(Cl)(Cl)Cl
14,85 to 88 °C,CCCCCN=C1SC(=CC(=O)O)C(=O)N1CCCCC
15,172 to 174 °C,CCc1nn(CCNS(=O)(=O)c2cn(C)cn2)c(CC)c1Cc1cc(Cl)cc(Cl)c1
16,124 to 125 °C,Cc1cc2c(Oc3cccc(C(F)(F)F)c3)nc(OCC(F)(F)F)nc2s1
17,115 to 119 °C,Cn1c(Br)c(Br)c(Br)c1C#N
18,104 °C,CCOC(=O)NN=COC(CC)NC (stereo unspecified)
19,154 °C,O=C(c1ccc(Cl)cc1)c1cccc(O)c1
20,110 °C,CC(C)(O/N=C(\C(=O)Sc1nc2ccccc2s1)c1csc(N)n1)C(=O)OC(c1ccccc1)c1ccccc1
21,175 °C,COC(=O)c1cc(C(=O)O)nn1C
22,250 to 253 °C,CCNS(=O)(=O)c1nc2cc(C(=O)c3ccccc3)ccc2[nH]1
23,89 to 99.5 °C,Cc1c(C=CC=O)c2c(c(C)c1OCc1ccccc1)CCC(C)(C)O2
24,97 to 99 °C,COc1cc(-c2cc(C(F)(F)F)nn2-c2ccc(S(N)(=O)=O)c(F)c2)ccc1-c1cscn1
25,137 to 138 °C,O=C(Cc1ccc(F)cc1)c1c(O)c2cccnc2n(-c2cccc(OC(F)(F)F)c2)c1=O
26,132 to 134 °C,COC(=O)C1CCCN(C(=O)OCc2ccccc2)N1C(=O)C(Br)CBr (stereo unspecified)

row,melting point,Compound
1,103 to 106 °C,COc1cccc(COc2ccc(N)nn2)c1OC
2,195 to 204 °C,C[C@H](NC1=NS(=O)(=O)c2sc(Cl)cc2N1)c1ccccc1
3,240 °C,CSCC(NCc1cc(Br)cc(Br)c1N)C(=O)O (stereo unspecified)
4,100 to 103 °C,CCn1nc(C(=O)NC2CN(C)CCN(C(=O)c3ccccc3)C2)c2ccccc21 (stereo unspecified)
5,> 280 °C,CC(C)(C)OC(=O)c1nc(-c2ccc([N+](=O)[O-])cc2)[nH]c1-c1ccncc1
6,295 °C,CC(=O)Nc1cccc(Oc2c(N)cc(C(=O)O)cc2S(N)(=O)=O)c1
7,130 to 131 °C,Cc1nn(-c2cncc(F)c2)cc1-c1cccc(C(F)(F)F)n1
8,140 to 141 °C,CN(C)c1ccccc1CS(=O)c1nc2c(n1-c1ccccn1)CCC2 (stereo unspecified)
9,188 to 189 °C,C=CCn1c(=O)c2cccnc2n(-c2cccc([N+](=O)[O-])c2)c1=O
10,151 °C,CN1C=C(c2ccccc2)c2cccc(NC(=O)C=NO)c2C1
11,211 to 212 °C,CCCn1nc2c(N)nc3ccccc3c2c1CCNC(=O)Nc1ccc(F)c(F)c1
12,251 to 253 °C,Cn1c(=Nc2nc(C(Cl)(Cl)Cl)nc(C(Cl)(Cl)Cl)n2)sc2ccccc21
13,163 to 165 °C,CC1(C)CC(O)C(C)(C)c2cc(CC=Cc3ccccc3C#N)ccc21 (stereo unspecified)
14,145 to 146 °C,CC(=O)NNC(=O)c1ccc2occc2c1
15,168 to 171 °C,CNC1=NS(=O)(=O)N=C1NCCSCc1ccccn1
16,68 to 70 °C,c1ccc(C2CN3CCN=C3S2)cc1 (stereo unspecified)
17,163 to 164 °C,CCCCNC(=O)NCCOc1ccc2c(ccn2Cc2ccc(Cl)cc2)c1
18,179 °C,Cc1cc(C)c2nc(-c3cnc(NCCCC4CCN(C)CC4)nc3C)[nH]c2c1
19,200 to 205 °C,O=C(O)Cc1c(C(=O)c2cc(C(=O)O)no2)[nH]c2ccc(Cl)cc12
20,187 to 188 °C,CN(C)C=C(C#N)C(=O)c1c[nH]c2ccccc12
21,103 to 106 °C,COCCN(CCOC)c1ccc(P(=O)(C(=O)c2c(C)cc(C)cc2C)C(=O)c2c(C)cc(C)cc2C)cc1
22,77 to 78 °C,c1ccc2c(c1)CSSC2
23,187 to 189 °C,COc1ccc(-c2ccc(Cl)cc2C#N)cc1C=O
24,108 to 110 °C,Clc1cc(Br)c2c(c1)COCO2
25,83 to 85 °C,CC(Oc1ccc(Oc2ccc(C(F)(F)F)cn2)cc1)C(=O)N1CCCO1 (stereo unspecified)
26,232 to 236 °C,Cc1cc2c(-c3ccccc3N)nc(N3CCNCC3)nc2s1

row,melting point,Compound
1,207 °C,O=c1[nH]c2ccccc2n1CCCN1CC=C(n2c(=O)[nH]c3ccccc32)CC1
2,154 to 155 °C,CN(c1cccc2cc(C3=NCC(C)(CCN4CCOCC4)S3)[nH]c12)S(=O)(=O)c1cccs1 (stereo unspecified)
3,111 °C,COc1cc(-c2nc(C)no2)cc([N+](=O)[O-])c1OC
4,159 to 160 °C,C#CCN1N=C(c2ccc(Cl)cc2)CN(C)C1=O
5,187 to 188 °C,COc1ccc(-n2ccnc2)cc1C(O)c1c(C)cc(C)cc1C (stereo unspecified)
6,130 to 131 °C,FC(F)(F)c1cc(-c2ccc(Cl)c(Cl)c2)nc2ccnn12
7,120 to 124 °C,CC(=O)N=C(OC(C)=O)N1CCSC1c1ccccc1OCCN1CCN(c2ccccc2)CC1 (stereo unspecified)
8,296 to 300 °C,O=[N+]([O-])c1ccc2c(Nc3ccncc3)noc2c1
9,120 to 121 °C,CNS(=O)(=O)c1cc(OC)c(OC)c(C(=O)NCC2CCCN2CC2=CCCCC2)c1 (stereo unspecified)
10,170 to 172 °C,N#Cc1cc(C(=O)O)cnc1Br
11,37 to 38 °C,CCSc1nccc(C)c1N
12,170 °C,Cc1cc(C)cc(Oc2ccc(-n3ccnc3)nn2)c1
13,181 to 183 °C,CC(C)(C)c1ccc2c(O)c(-c3ccccc3)sc2n1
14,162 to 165 °C,CCOC(=O)Cn1c2cccccc-2c(C(C)=O)c1=O
15,198 °C,O=C(N[C@H]1CC[C@H](CCN2CCN(c3nccc4c3OCC4)CC2)CC1)C(F)(F)F
16,153 to 156 °C,CNC(=O)c1cc(NC(=O)c2ccc(C)c(Nc3nccc(N4C=CC=NC4)n3)c2)cc(N2CCOCC2)c1
17,109 to 112 °C,CC(=O)n1cnc2c(CBr)cccc21
18,277 to 279 °C,O=C(CCCOc1ccc2nc3[nH]c(=O)[nH]c3cc2c1)N1CCN(c2ccccc2)CC1
19,144 to 145 °C,Cc1cccc(-n2nnc3cccnc32)n1
20,> 250 °C,CCc1ccc(Nc2nc3cc(NC(=O)c4cc(F)cc(C(F)(F)F)c4)ccc3o2)cc1
21,195 to 200 °C,Cc1cc(C#N)sc1-c1ccc2c(c1)C(C)(C)OC(=O)N2
22,143 to 144 °C,COc1ccc2c(ccn2CC2(c3ccccc3Br)OCCO2)n1
23,170 °C,CCOC(=O)C1Cc2c([nH]c3ccccc23)C(c2ccc(N(C)C)cc2)N1 (stereo unspecified)
24,67 to 70 °C,O=[N+]([O-])c1ccccc1Nc1ccccc1O
25,224 to 228 °C,NS(=O)(=O)c1cc(Br)cc2c1OS(=O)(=O)C=C2
26,222 to 224 °C,COc1cc(C)c(C=CC(C)=CC=C(C)C(=O)O)cc1C

row,melting point,Compound
1,154 to 156 °C,Cc1[nH]nc(CN2CCN(Cc3c[nH]c4ncccc34)CC2)c1-c1ccccc1
2,161 to 162 °C,CC(C(=O)O)c1ccc2nc(-c3ccccc3)ccc2c1 (stereo unspecified)
3,118 to 121 °C,CCCN(CCC)S(=O)(=O)c1cc(C2=CCC(=O)O2)ccc1Cl
4,175 to 176 °C,Cn1ncc2c1C(=O)C(Cl)=C(NC1CC1)C2=O
5,157 to 159 °C,COC1=CC(=O)C(OC)=C(CCCC2=C(OC)C(=O)C=C(OC)C2=O)C1=O
6,93 to 95 °C,CCn1nc(C(C)(C)C)cc1C(=O)Nc1ccc(F)c(C(=O)N(C)C)c1
7,145 °C,COc1ccc(Cn2nc(-c3cccc(Cl)c3)c3ncccc3c2=O)cn1
8,48 °C,CC1CC(=Cc2ccccc2Cl)C(=O)O1 (stereo unspecified)
9,197 °C,CNC(=O)c1c(I)c(N)c(I)c(N(CCO)C(C)=O)c1I
10,75 to 78 °C,CCn1c(=O)oc2ccc(Cl)cc21
11,79 to 82 °C,O=[N+]([O-])c1nccn1CCI
12,98 to 100 °C,CCOC(=O)COc1coc(CCl)cc1=O
13,53 to 55 °C,CC(C)C[C@@H](C(=O)O)N(C)C(=O)OC(C)(C)C
14,111 to 113 °C,CCCC12CCC3=C(CCc4cc(OC)ccc43)C1CCC2=O (stereo unspecified)
15,125 to 130 °C,CCc1oc2ccccc2c1C(=O)N(Cc1ccccc1)Cc1ccc2c(Br)c(O)ccc2c1
16,167 to 173 °C,CC1(C)C(=N)N(CC(N)=O)c2ccccc21
17,182 to 184 °C,CCCc1c2oc(C#N)cc(=O)c2cc2c(=O)cc(C(=O)OCC)oc12
18,110 to 112 °C,COC(=O)C(Cl)=Cc1cccc([N+](=O)[O-])c1Cl
19,45 °C,CCC(=O)N1CCN(C(=O)Cl)CC1
20,174 to 175 °C,O=c1nc(N2CCCc3ccccc32)sc2ncccc12
21,280 to 283 °C,CC1=Nc2c(C)nn(C)c2C2=NCC(C)(C)N12
22,114 to 116 °C,CN1CCCCC1CCc1ccccc1NC(=O)c1ccoc1 (stereo unspecified)
23,67 to 69 °C,COc1nc(C(Cl)(Cl)Cl)c(Cl)c(OC)c1Cl

row,Compound,melting point
1,CON=CNC(=O)c1ccc(C2=NOC(c3cc(Cl)cc(Cl)c3)(C(F)(F)F)C2)cc1C(C)(C)N (stereo unspecified),144 to 146 °C
2,c1ccc(OC2CCN(CCc3c[nH]c4ccccc34)CC2)cc1,123 to 125 °C
3,CC1(C)C2CC[C@@]1(N1CCCCC1)[C@H](O)C2,88.5 to 89.5 °C
4,CC(=O)C1(c2ccccc2)CCN(C(=O)OC(C)(C)C)CC1,91 to 92 °C
5,COC(=O)c1coc(-c2ncn3c2CN(C)C(=O)c2c(Cl)cccc2-3)n1,266 to 268 °C
